Our source for the T/C values is PubChem BioAssay AID212 (DTP/NCI, 2004).

Where “and” joins values, the source holds several entries; their conditions need not be identical. Identical values can stand only once. Results filed as inconclusive are left out.

In this experiment the test system is BDF1 mice, colon carcinoma 38 sc, T/C %. Nature of the experiment: NCI In Vivo Anticancer Drug Screen. Data for tumor model Colon Carcinoma 38 (subcutaneous) in B6D2F1 (BDF1) mice. The following applies: endpoint: median tumor weight (est.), higher = larger tumour. The essentials: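 T/C readout: treated group (T) measurement over vehicle control group (C) measurement. Endpoint is survival or tumor size in mice bearing a transplanted tumor.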

Setting [1] is: dose: 12.5 mg/kg/injection, schedule: Q07DX002 (ip), vehicle: Klucel (hydroxypropylcellulose) (HPC).
Setting [2] is: dose: 12.5 mg/kg/injection, schedule: Q07DX003 (ip), vehicle: Klucel (hydroxypropylcellulose) (HPC).
[3] abbreviates: dose: 25.0 mg/kg/injection, schedule: Q07DX002 (ip), vehicle: Klucel (hydroxypropylcellulose) (HPC).
Where [4] appears, read: dose: 25.0 mg/kg/injection, schedule: Q07DX003 (ip), vehicle: Klucel (hydroxypropylcellulose) (HPC).
Setting [5] is: dose: 50.0 mg/kg/injection, schedule: Q07DX002 (ip), vehicle: Klucel (hydroxypropylcellulose) (HPC).
Setting [6] is: dose: 100.0 mg/kg/injection, schedule: Q07DX002 (ip), vehicle: Klucel (hydroxypropylcellulose) (HPC).
The mark [7] stands for this setting: dose: 100.0 mg/kg/injection, schedule: Q07DX003 (ip), vehicle: Klucel (hydroxypropylcellulose) (HPC).
Where [8] appears, read: dose: 200.0 mg/kg/injection, schedule: Q07DX002 (ip), vehicle: Klucel (hydroxypropylcellulose) (HPC).
Where [9] appears, read: dose: 200.0 mg/kg/injection, schedule: Q07DX003 (ip), vehicle: Klucel (hydroxypropylcellulose) (HPC).
Where [10] appears, read: dose: 3.12 mg/kg/injection, schedule: Q07DX002 (ip), vehicle: saline.
The mark [11] stands for this setting: dose: 6.25 mg/kg/injection, schedule: Q07DX002 (ip), vehicle: saline.
Setting [12] is: dose: 12.5 mg/kg/injection, schedule: Q07DX002 (ip), vehicle: saline.
Where [13] appears, read: dose: 25.0 mg/kg/injection, schedule: Q07DX002 (ip), vehicle: saline.
Where [14] appears, read: dose: 50.0 mg/kg/injection, schedule: Q07DX002 (ip), vehicle: saline.
Where [15] appears, read: dose: 400.0 mg/kg/injection, schedule: Q07DX002 (ip), vehicle: Klucel (hydroxypropylcellulose) (HPC).
[16] abbreviates: dose: 6.25 mg/kg/injection, schedule: Q07DX002 (ip), vehicle: Klucel (hydroxypropylcellulose) (HPC).
Where [17] appears, read: dose: 20.0 mg/kg/injection, schedule: Q07DX002 (ip), vehicle: saline.

For the molecule `O=C1CN(CCN2CC(=O)N(CN3CCOCC3)C(=O)C2)CC(=O)N1CN1CCOCC1`, the T/C (dose: 12.5 mg/kg/injection, schedule: Q07DX002 (ip), vehicle: water) is 168 % of control; the T/C (dose: 25.0 mg/kg/injection, schedule: Q07DX002 (ip), vehicle: water) was 158 % of control; the T/C (dose: 50.0 mg/kg/injection, schedule: Q07DX002 (ip), vehicle: water) was 36 % of control; the T/C (dose: 100.0 mg/kg/injection, schedule: Q07DX002 (ip), vehicle: water) was 113 % of control and 90 % of control; the T/C (dose: 200.0 mg/kg/injection, schedule: Q07DX002 (ip), vehicle: water) was 57 % of control.
Take `CC(=O)OCC(=O)[C@@]12OC(C)(C)O[C@@H]1C[C@H]1[C@@H]3CC(C=O)=C4C=C(OCCCl)CC[C@]4(C)[C@@]3(F)[C@@H](O)C[C@@]12C`: the T/C is 86 % of control under setting [1]; 62 % of control and 76 % of control under setting [2]; 58 % of control under setting [3]; 33 % of control and 57 % of control under setting [4]; 86 % of control under setting [5]; 94 % of control under setting [6]. The T/C by setting is: under setting [7], 57 % of control; under setting [8], 54 % of control; under setting [9], 48 % of control.
Regarding `ClC1=C(Cl)C2(Cl)C3C(Cl)C(Cl)CC3C1(Cl)C2(Cl)Cl` (stereo unspecified), the T/C (dose: 9.5 mg/kg/injection, schedule: Q07DX002 (ip), vehicle: saline with Tween-80) is 103 % of control; the T/C (dose: 19.0 mg/kg/injection, schedule: Q07DX002 (ip), vehicle: saline with Tween-80) is 114 % of control; the T/C (dose: 28.0 mg/kg/injection, schedule: Q07DX002 (ip), vehicle: saline + Tween-80 + alcohol) is 102 % of control; the T/C (dose: 28.0 mg/kg/injection, schedule: Q07DX002 (ip), vehicle: saline with Tween-80) is 100 % of control; the T/C (dose: 50.0 mg/kg/injection, schedule: Q07DX002 (ip), vehicle: other) was 63 % of control and 86 % of control; the T/C (dose: 56.0 mg/kg/injection, schedule: Q07DX002 (ip), vehicle: saline + Tween-80 + alcohol) is 86 % of control. Moreover, the T/C was 92 % of control and 93 % of control (dose: 56.0 mg/kg/injection, schedule: Q07DX002 (ip), vehicle: saline with Tween-80); 84 % of control (dose: 100.0 mg/kg/injection, schedule: Q07DX002 (ip), vehicle: other); 100 % of control (dose: 112.0 mg/kg/injection, schedule: Q07DX002 (ip), vehicle: saline with Tween-80).
In the case of `CN(N=O)C(N)=O`, the T/C is, setting by setting: under setting [10], 95 % of control; (dose: 6.0 mg/kg/injection, schedule: Q07DX002 (ip), vehicle: saline) 93 % of control; under setting [11], 99 % of control; (dose: 6.25 mg/kg/injection, schedule: Q07DX002 (ip), vehicle: suspension in saline) 108 % of control; (dose: 12.0 mg/kg/injection, schedule: Q07DX002 (ip), vehicle: saline) 112 % of control; under setting [12], 78 % of control. The T/C runs as follows: (dose: 12.5 mg/kg/injection, schedule: Q07DX002 (ip), vehicle: suspension in saline) 76 % of control; under setting [13], 43 % of control and 62 % of control; (dose: 25.0 mg/kg/injection, schedule: Q07DX002 (ip), vehicle: suspension in saline) 55 % of control; under setting [14], 37 % of control; (dose: 50.0 mg/kg/injection, schedule: Q07DX002 (ip), vehicle: suspension in saline) 82 % of control; (dose: 100.0 mg/kg/injection, schedule: Q07DX002 (ip), vehicle: suspension in saline) 84 % of control.
Turning to `Cc1ccc(NCC2(/N=C/c3ccccc3)OC(CO)C(O)C2O)cc1` (stereo unspecified), the T/C runs as follows: under setting [2], 110 % of control; under setting [4], 69 % of control; (dose: 50.0 mg/kg/injection, schedule: Q07DX003 (ip), vehicle: Klucel (hydroxypropylcellulose) (HPC)) 117 % of control; under setting [7], 106 % of control; under setting [9], 59 % of control.
As for `CC(C)=CCC/C(C)=C/COc1ccc(/C=C2/C(=O)N(O)[C@@H](C)C(=O)N2O)cc1`, the T/C was 262 % of control under setting [11]; 202 % of control under setting [12]; 178 % of control under setting [13]; 154 % of control under setting [14]; 154 % of control (dose: 100.0 mg/kg/injection, schedule: Q07DX002 (ip), vehicle: saline).
`O=C1N[C@@H]([C@H]2CC[C@H](Cl)CN2)C(=O)N[C@H]1[C@H]1CC[C@H](Cl)CN1`: the T/C is, setting by setting: (dose: 0.31 mg/kg/injection, schedule: Q07DX003 (ip), vehicle: water) 85 % of control; (dose: 0.63 mg/kg/injection, schedule: Q07DX003 (ip), vehicle: water) 110 % of control; (dose: 1.25 mg/kg/injection, schedule: Q07DX003 (ip), vehicle: water) 79 % of control; (dose: 2.5 mg/kg/injection, schedule: Q07DX003 (ip), vehicle: water) 70 % of control; (dose: 5.0 mg/kg/injection, schedule: Q07DX003 (ip), vehicle: water) 6 % of control.
As for `Oc1c(Cl)cc(Cl)cc1C1N2CCCCC2C2c3cccn3-c3ccccc3N21` (stereo unspecified), the T/C under setting [3] is 82 % of control; the T/C under setting [5] is 102 % of control; the T/C under setting [6] was 69 % of control; the T/C under setting [8] was 104 % of control; the T/C under setting [15] was 67 % of control.
As for `Nc1ccccc1N`, the T/C is, setting by setting: under setting [1], 75 % of control and 91 % of control; under setting [3], 122 % of control and 102 % of control; under setting [5], 91 % of control; under setting [15], 54 % of control.
Consider `[I][Hg][CH2]C1OCCOC1[CH2][Hg][I]` (stereo unspecified), for which the T/C is, setting by setting: (dose: 1.56 mg/kg/injection, schedule: Q07DX002 (ip), vehicle: Klucel (hydroxypropylcellulose) (HPC)) 93 % of control; (dose: 3.12 mg/kg/injection, schedule: Q07DX002 (ip), vehicle: Klucel (hydroxypropylcellulose) (HPC)) 101 % of control; under setting [16], 92 % of control; under setting [1], 99 % of control and 106 % of control; under setting [3], 83 % of control and 91 % of control.
For `CCOC(=O)Nc1cc2c(c(N)n1)N=C(CN(C)c1ccccc1)CN2`, the T/C was 88 % of control under setting [3]; 63 % of control and 68 % of control under setting [5].
As to `CC1=C(O)C(=O)[C@@H]2O[C@@H]2C1=O`, the T/C is 90 % of control under setting [10], 106 % of control under setting [11] and 71 % of control under setting [12].
With `CN(C)N=Nc1cccc(C(N)=O)c1`, the T/C (dose: 10.0 mg/kg/injection, schedule: Q07DX002 (ip), vehicle: Klucel (hydroxypropylcellulose) (HPC)) is 86 % of control; the T/C (dose: 20.0 mg/kg/injection, schedule: Q07DX002 (ip), vehicle: Klucel (hydroxypropylcellulose) (HPC)) was 86 % of control; the T/C under setting [17] was 97 % of control; the T/C (dose: 40.0 mg/kg/injection, schedule: Q07DX002 (ip), vehicle: Klucel (hydroxypropylcellulose) (HPC)) was 44 % of control; the T/C (dose: 40.0 mg/kg/injection, schedule: Q07DX002 (ip), vehicle: saline) is 114 % of control and 104 % of control; the T/C (dose: 80.0 mg/kg/injection, schedule: Q07DX002 (ip), vehicle: Klucel (hydroxypropylcellulose) (HPC)) was 18 % of control. The T/C (dose: 160.0 mg/kg/injection, schedule: Q07DX002 (ip), vehicle: saline) was 27 % of control and 29 % of control.
With `CCc1ccc(C2=C(O)C(=O)C(c3ccccc3)=C(O)C2=O)cc1`, the T/C was 101 % of control under setting [1], 81 % of control under setting [3] and 50 % of control under setting [5].
Take `CCCC(=O)OCc1cc(=O)n(C)c2c3c4c(cc12)c(C)cc(=O)n4CO3`: the T/C under setting [16] is 99 % of control; the T/C under setting [1] was 96 % of control; the T/C under setting [3] was 162 % of control; the T/C under setting [5] was 150 % of control; the T/C under setting [6] was 64 % of control.
Consider `CC[n+]1c(-c2ccccc2)c2cc(N)ccc2c2ccc(N)cc21`, for which the T/C (dose: 2.5 mg/kg/injection, schedule: Q07DX002 (ip), vehicle: saline) is 99 % of control; the T/C under setting [17] was 118 % of control and 103 % of control.
